Laboratory results published in article PMC6488552, “Pharmacokinetic and Pharmacodynamic Properties of a Micro-Dose Nasal Spray Formulation of Desmopressin (AV002) in Healthy Water-Loaded Subjects” (Pharmaceutical Research, 2019).

Tests used:
[1] = in vivo, cited from earlier work
clinical = conditions: human, in vivo
Method: Each subject was dosed 4 times over 1 week with dosing occurring every other day. Doses of AV002 were administered at 0.5, 1.0, and 2.0 μg intranasally.
On Days 1, 3 and 5, subjects were dosed intranasally with escalating doses of AV002 nasal spray. On Day 7, 6 subjects were given a single SC bolus injection of desmopressin. Pharmacodynamic and pharmacokinetic metrics were evaluated at each dose level.
Plasma samples were analyzed using a validated radioimmunoassay assay (Celerion Switzerland AG) for desmopressin with a lower limit of quantification (LLOQ) of 2.5 pg/mL and upper limit of quantitation of 160 pg/mL. A 1.25 pg/mL calibration standard was included in the assay runs and concentrations between 1.25 and 2.5 pg/mL were reported out even though they were below the nominal LLOQ.
Pharmacokinetic variables were generally analyzed using model-independent methods. A single compartment model with first order absorption was used to qualitatively assess the impact of probable pharmacokinetic behavior of desmopressin when concentrations declined below the assay lower limit of quantification.
Pharmacokinetic calculations were performed using built in functions in the Excel 2003 component of Microsoft Office 2003 (Microsoft, Redmond, WA). The correctness of the calculation techniques was confirmed by comparison to output from WinNonlin 4.0.1 (Pharsight Corporation, Sunnyvale, CA). Summary statistics, graphs and figures were generated using built in functions and features of Excel 2003.
Pharmacokinetic samples were collected at pre-dose and 0.083, 0.167, 0.25, 0.50, 0.75, 1.05, 1.50, 2.05, 3.05, 4.05, and 6.05 h post dose each dosing day.

NC(=O)CC[C@@H]1NC(=O)[C@H](Cc2ccccc2)NC(=O)[C@H](Cc2ccc(O)cc2)NC(=O)CCSSC[C@@H](C(=O)N2CCC[C@H]2C(=O)N[C@H](CCCN=C(N)N)C(=O)NCC(N)=O)NC(=O)[C@H](CC(N)=O)NC1=O [Desmopressin, desmopressin]
intranasal bioavailability ([1]; human): 3.4%
relative bioavailability of intranasal administration, of SC injection [1]: approximately 2%
half-life (clinical): 90 min
mean Tmax (clinical; sc): 53 min
CL/F (clinical; sc, 0.12 ug): 227 mL/min
AUC(0-inf) (clinical; sc, 0.12 ug, SD): 0.0102 ± 0.0049 ng·h/mL
Tmax (clinical; sc, 0.12 ug, SD): 53 ± 20.9 min
